# Data from patent US9834535B2, “Sulfamate derivative compounds for use in treating or alleviating pain” (Bio-Pharm Solutions Co., Ltd., priority 2013, dated 2017).
# Experiments:
# [1] = test system: SNL model; test: Antiallodynic activity on Chung model (SNL, spinal nerve ligation; von Frey); assay type: in vivo, Sprague-Dawley rats; details: rat, oral, von Frey, 1 h
# Description: Male. Sprague-Dawley rats (200-220 g, Orient Bio, Korea) were habituated for 1 week before the experiment and allowed free access to food and water throughout the experimentation. Room temperature and humidity were maintained at 24±2° C. and 50±10%, respectively. Neuropathic surgery (SNL, Spinal nerve ligation) model was clone as described in Kim and Chung (1992). Briefly, animal under gaseous anesthesia with isoflurane a 4:4 flow ratio of NO2. The left lumber spinal nerve L5 and L6 were isolated and tightly ligated with 4-0 silk thread. The wound was treated with a gentamicin antibiotics solution (4 mg/kg, 4 ul/g, bw), and the wound muscle was closed with cat cut chrom 4/0 thread and skin was closed dafilon 4/0 tread. Sham controls were prepared in the same manner as the spinal nerves were exposed, but no ligated L5 and L6 nerves. But, vehicle controls were identical to SNL model, except for administration of vehicles.
# Tactile sensitivity (Mechanical allodynia) was evaluated using von Frey monofilaments before and after treatment and animals were used withdrawal threshold value was less than 4 g. One week after surgery, SNL-operated animals (n=4˜6), sham-operated animals (n=4˜10) and vehicle-operated animals (n=4˜13) were tested for tactile sensitivity with von Frey monofilaments 3 trials in each animal. All Animals were placed in a stainless steel mashed chamber and habituated for 30 min in the test box. The tactile sensitivity for ipsilateral hind paw was measured using the up-and-down method (Dixon, 1980) with seven von Frey monofilaments (0.4, 1, 2, 4, 6, 8, and 15 g) to 3 trials. Tactile sensitivity test was followed by Dixon's method (Dixon, 1980). The 50% paw withdrawal threshold for each paw was calculated using the following formula: [Xth] log=[vFr] log+ky where [vFr] is the force of the last von Frey used, k=0.2249 which is the average interval (in log units) between the von Frey monofilaments, and y is a value that depends upon the pattern of withdrawal responses (Dixon, 1980).
# All animals were fasted 18 h before the administration of the compounds. The antiallodynic effect of the compounds were evaluated at the various dose (n=5˜6), orally administrated in a volume of 5 ul/g, bw in a vehicle of 30% (v/v) PEG 400 or 20% (v/v) Tween 80 or Saline. […]
# The relative values compared to the sham group (% control) were calculated and shown in Table 5, which show an antiallodynic effect of the test compounds on SNL model in rats.
# [2] = test system: tail-flick withdrawal latency; test: Tail-flick test; assay type: in vivo, ICR mice; details: mouse, oral
# Description: To examine the pain relief effect of the sulfamate compounds, a tail-flick test was conducted in general pain animal model referring to Current Protocols in Neuroscience; Behavioral Neuroscience Unit 8.9.
# ICR mice (male, 25-30 g; Orient Bio, Korea) were habituated before test in test room for 1 hour. Animals were fasted 2 hr before administration of compounds. Each of Compound was orally administered at the close of 150 mg/kg, 10 ul/g, bw (n=7˜10/group). All compounds were dissolved in a vehicle of 30% (v/v) PEG 400 or 20% (v/v) Tween 80. The control group was treated the vehicle without compounds.
# After the administration of compounds, the mice tail were put on a tail-flick analgesia meter. To avoid tissue damage, maximal exposure time to pain stimuli was restricted to 15 s. The withdrawal latency was measured as the time to the point when each mouse response to the stimulus. The relative values compared to the control (% control) were calculated.
# The relative values compared to the sham were calculated and shown in Table 12, which show effect of the compound of examples on tail-flick test in […].
# [3] = test system: Vincristine-induced pain model; test: Antiallodynic activity on vincristine-induced pain model (von Frey); assay type: in vivo, Sprague-Dawley rats; details: ip, rat, intraperitoneal, 0.5 h
# Description: Male, Sprague-Dawley rats (300-320 g, Nara Bio, Korea) were habituated for 1 week before surgery and allowed free access to food and water throughout the experimentation. Room temperature and humidity were maintained at 24±2° C. and 50±10%, respectively.
# Vincristine was established by the procedure of Natsuko et al. (2001) with minor modifications. Vincristine was intravenously infused continuously for 14 clays using a mini-osmotic pump as follows. Vincristine sulfate solution (Hospira, Australia) was diluted with 0.9% saline to 30 ug/kg, final close. The pumps (Alzet Model 2002, USA) were filled with the vincristine solution and primed by incubation at 37° C. for 4 h before the infusion. […]
# Tactile sensitivity (Mechanical allodynia) was evaluated using von Frey monofilaments before and after treatment, and animals were used withdrawal threshold value was less than 4 g. […] The tactile sensitivity for ipsilateral hind paw was measured using the up-and-down method (Dixon, 1980) with seven von Frey monofilaments (0.4, 1, 2, 4, 6, 8, and 15 g) to 3 trials. […] The 50% paw withdrawal threshold for each paw was calculated using the following formula: [Xth] log=[vFr] log+ky where [vFr] is the force of the last von Frey used, k=0.2249 which is the average interval (in log units) between the von Frey monofilaments, and y is a value that depends upon the pattern of withdrawal responses (Dixon, 1980). […]
compound,measurement,setting,value
"CC1(C)O[C@@H](COS(N)(=O)=O)[C@H](c2ccccc2Cl)O1 [Example 2, ((4S,5S)-5-(2-chlorophenyl)-2,2-dimethyl-1,3-dioxolan-4-yl)methyl sulfamate]",ED50,[1],18.2 mg/kg
same,tail-flick test: dose,[2],> 200 mg/kg
same,ED50,[3],1 mg/kg
